PubChem BioAssay (NCI)
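Test compounds were applied to cells in 96-well plates for 48 hours at 5 doses. Here, GI50 denotes the concentration required for 50% inhibition of growth. Definition used: TGI = concentration required for complete inhibition of growth.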

How the values were obtained:
Experiment in all cases: NCI tumour cell line growth inhibition, 48 h
MOLT-4 leukemia = tested on: MOLT-4 leukemia
ACHN renal = tested on: ACHN renal
HCT-15 colon = tested on: HCT-15 colon
SN12C renal = tested on: SN12C renal
RXF 393 renal = tested on: RXF 393 renal
HCT-116 colon = tested on: HCT-116 colon
RPMI-8226 leukemia = tested on: RPMI-8226 leukemia
SNB-19 CNS = tested on: SNB-19 CNS
LOX IMVI melanoma = tested on: LOX IMVI melanoma
NCI-H460 lung = tested on: NCI-H460 lung
K-562 leukemia = tested on: K-562 leukemia
EKVX NSCLC = tested on: EKVX NSCLC
IGROV1 ovarian = tested on: IGROV1 ovarian
TK-10 renal = tested on: TK-10 renal
MDA-MB-435 = tested on: MDA-MB-435
OVCAR-4 ovarian = tested on: OVCAR-4 ovarian
CCRF-CEM leukemia = tested on: CCRF-CEM leukemia
SR leukemia = tested on: SR leukemia
SK-OV-3 ovarian = tested on: SK-OV-3 ovarian
HCC-2998 colon = tested on: HCC-2998 colon
NCI-H226 lung = tested on: NCI-H226 lung
786-0 renal = tested on: 786-0 renal
BT-549 breast = tested on: BT-549 breast
MCF7 breast = tested on: MCF7 breast
UACC-62 melanoma = tested on: UACC-62 melanoma
SF-295 CNS = tested on: SF-295 CNS
A498 renal = tested on: A498 renal
MALME-3M melanoma = tested on: MALME-3M melanoma
OVCAR-5 ovarian = tested on: OVCAR-5 ovarian
SF-268 CNS = tested on: SF-268 CNS
UACC-257 melanoma = tested on: UACC-257 melanoma
MDA-MB-231 breast = tested on: MDA-MB-231 breast
T-47D breast = tested on: T-47D breast
M14 melanoma = tested on: M14 melanoma
SF-539 CNS = tested on: SF-539 CNS
COLO 205 colon = tested on: COLO 205 colon
KM12 colon = tested on: KM12 colon
SK-MEL-5 melanoma = tested on: SK-MEL-5 melanoma
HT29 colon = tested on: HT29 colon
DU-145 prostate = tested on: DU-145 prostate
NCI-H522 lung = tested on: NCI-H522 lung
OVCAR-8 ovarian = tested on: OVCAR-8 ovarian
SK-MEL-28 melanoma = tested on: SK-MEL-28 melanoma
U251 CNS = tested on: U251 CNS
HL-60(TB) leukemia = tested on: HL-60(TB) leukemia
HS 578T breast = tested on: HS 578T breast
SW-620 colon = tested on: SW-620 colon
HOP-92 NSCLC = tested on: HOP-92 NSCLC
NCI/ADR-RES ovarian = tested on: NCI/ADR-RES ovarian
SNB-75 CNS = tested on: SNB-75 CNS
UO-31 renal = tested on: UO-31 renal
CAKI-1 renal = tested on: CAKI-1 renal
HOP-62 NSCLC = tested on: HOP-62 NSCLC
PC-3 prostate = tested on: PC-3 prostate
SK-MEL-2 melanoma = tested on: SK-MEL-2 melanoma
A549 NSCLC = tested on: A549 NSCLC

Q: Which results are given for `CNC(=O)c1cc(N2CCc3cc(NC(=O)Nc4ccc(N5CCOCC5)c(C(F)(F)F)c4)ccc32)ccn1`?
A: GI50 (MOLT-4 leukemia): 1210 nM; TGI (MOLT-4 leukemia): 31100 nM; GI50 (ACHN renal): 1900 nM; TGI (ACHN renal): > 33300 nM; GI50 (HCT-15 colon): 1170 nM; TGI (HCT-15 colon): > 33300 nM; GI50 (SN12C renal): 1260 nM; TGI (SN12C renal): > 33300 nM; GI50 (RXF 393 renal): 775 nM; TGI (RXF 393 renal): 2110 nM; GI50 (HCT-116 colon): 1170 nM; TGI (HCT-116 colon): 10500 nM; GI50 (RPMI-8226 leukemia): 614 nM; TGI (RPMI-8226 leukemia): 2500 nM; GI50 (SNB-19 CNS): 3870 nM; TGI (SNB-19 CNS): > 33300 nM; GI50 (LOX IMVI melanoma): 1510 nM; TGI (LOX IMVI melanoma): 17900 nM; GI50 (NCI-H460 lung): 1210 nM; TGI (NCI-H460 lung): 27300 nM; GI50 (K-562 leukemia): 996 nM; TGI (K-562 leukemia): > 33300 nM; GI50 (EKVX NSCLC): 4160 nM; TGI (EKVX NSCLC): > 33300 nM; GI50 (IGROV1 ovarian): 1430 nM; TGI (IGROV1 ovarian): > 33300 nM; GI50 (TK-10 renal): 11300 nM; TGI (TK-10 renal): > 33300 nM; GI50 (MDA-MB-435): 2710 nM; TGI (MDA-MB-435): > 33300 nM; GI50 (OVCAR-4 ovarian): 1690 nM; TGI (OVCAR-4 ovarian): > 33300 nM; GI50 (CCRF-CEM leukemia): 1470 nM; TGI (CCRF-CEM leukemia): > 33300 nM; GI50 (SR leukemia): 946 nM; TGI (SR leukemia): > 33300 nM; GI50 (SK-OV-3 ovarian): 7160 nM; TGI (SK-OV-3 ovarian): > 33300 nM; GI50 (HCC-2998 colon): 2510 nM; TGI (HCC-2998 colon): > 33300 nM; GI50 (NCI-H226 lung): 1330 nM; TGI (NCI-H226 lung): > 33300 nM; GI50 (786-0 renal): 1440 nM; TGI (786-0 renal): 18900 nM; GI50 (BT-549 breast): 1040 nM; TGI (BT-549 breast): 2750 nM; GI50 (MCF7 breast): 1560 nM; TGI (MCF7 breast): > 33300 nM; GI50 (UACC-62 melanoma): 776 nM; TGI (UACC-62 melanoma): 1970 nM; GI50 (SF-295 CNS): 689 nM; TGI (SF-295 CNS): 2550 nM; GI50 (A498 renal): 1690 nM; TGI (A498 renal): 25100 nM; GI50 (MALME-3M melanoma): 2130 nM; TGI (MALME-3M melanoma): > 33300 nM; GI50 (OVCAR-5 ovarian): 4950 nM; TGI (OVCAR-5 ovarian): > 33300 nM; GI50 (SF-268 CNS): 5700 nM; TGI (SF-268 CNS): > 33300 nM; GI50 (UACC-257 melanoma): 3230 nM; TGI (UACC-257 melanoma): > 33300 nM; GI50 (MDA-MB-231 breast): 2470 nM; TGI (MDA-MB-231 breast): > 33300 nM; GI50 (T-47D breast): 908 nM; TGI (T-47D breast): 9030 nM; GI50 (M14 melanoma): 1410 nM; TGI (M14 melanoma): 25000 nM; GI50 (SF-539 CNS): 600 nM; TGI (SF-539 CNS): > 33300 nM; GI50 (COLO 205 colon): 1150 nM; TGI (COLO 205 colon): 22000 nM; GI50 (KM12 colon): 293 nM; TGI (KM12 colon): > 33300 nM; GI50 (SK-MEL-5 melanoma): 1100 nM; TGI (SK-MEL-5 melanoma): 4720 nM; GI50 (HT29 colon): 1640 nM; TGI (HT29 colon): > 33300 nM; GI50 (DU-145 prostate): 3040 nM; TGI (DU-145 prostate): > 33300 nM; GI50 (NCI-H522 lung): 1290 nM; TGI (NCI-H522 lung): 16300 nM; GI50 (OVCAR-8 ovarian): 1800 nM; TGI (OVCAR-8 ovarian): > 33300 nM; GI50 (SK-MEL-28 melanoma): 3520 nM; TGI (SK-MEL-28 melanoma): > 33300 nM; GI50 (U251 CNS): 1320 nM; TGI (U251 CNS): > 33300 nM; GI50 (HL-60(TB) leukemia): 904 nM; TGI (HL-60(TB) leukemia): 5500 nM; GI50 (HS 578T breast): 779 nM; TGI (HS 578T breast): 2940 nM; GI50 (SW-620 colon): 2340 nM; TGI (SW-620 colon): > 33300 nM; GI50 (HOP-92 NSCLC): 899 nM; TGI (HOP-92 NSCLC): 5540 nM; GI50 (NCI/ADR-RES ovarian): 2160 nM; TGI (NCI/ADR-RES ovarian): > 33300 nM; GI50 (SNB-75 CNS): 1140 nM; TGI (SNB-75 CNS): 13800 nM; GI50 (UO-31 renal): 1210 nM; TGI (UO-31 renal): 25100 nM; GI50 (CAKI-1 renal): 3840 nM; TGI (CAKI-1 renal): > 33300 nM; GI50 (HOP-62 NSCLC): 2560 nM; TGI (HOP-62 NSCLC): 25000 nM; GI50 (PC-3 prostate): 1170 nM; TGI (PC-3 prostate): > 33300 nM; GI50 (SK-MEL-2 melanoma): 1130 nM; TGI (SK-MEL-2 melanoma): 5730 nM; GI50 (A549 NSCLC): 1620 nM; TGI (A549 NSCLC): > 33300 nM
